Residues, ends and D or L forms follow the SMILES beside them.
Key:
[1] = system: binding of PI 3-kinase holoenzyme to HGF/SF receptor; test: Competition of phosphopeptides with PI 3-kinase holoenzyme (A549 cytosolic extracts) for association with recombinant HGF/SF receptor (PI 3-kinase activity assay); parameters: species or system human; settings: phosphopeptide 10 μM; A549 cytosolic extracts; FIG. 3
Protocol: FIG. 3. Inhibition of binding of PI 3-kinase holoenzyme to HGF/SF receptor by tyrosine-phosphorylated peptides. The phosphopeptides which efficiently out-competed p85 (FIG. 1) were assayed for the ability to interfere with binding of the PI 3-kinase holoenzyme to the HGF/SF receptor. Cytosolic extracts from three days-starved A549 cells were pre-incubated with each of the phosphopeptides (10 μM) prior to incubation with the immobilized recombinant HGF/SF receptor. The presence of receptor-associated PI 3-kinase in the immunocomplexes was determined by PI 3-kinase activity assay, as described in Materials and Methods of Example 4. The position of the phosphatidylinositol-3-phosphate (PIP) product of the PI 3-kinase reaction is indicated.
In vitro association experiments. Sf9 cells expressing the recombinant HGF/SF receptor (approximately 4×10^6 cells/point) were lysed 36 hours after infection in buffer A (10 mM Tris-HCl buffer pH 7.5, 10% glycerol, 1% Triton X-100, 150 mM NaCl, 5 mM EDTA), supplemented with 0.2 mM phenyl-methylsulfonyl fluoride, 1 μg/ml leupeptin, 0.1 TIU/ml aprotinin and 1 μg/ml pepstatin. […]
The presence of the p85 subunit of the PI 3-kinase in the receptor immunoprecipitate was determined by: i) labelling of the receptor and associated proteins with [γ-^32 P]ATP by in vitro kinase assay; ii) Western immunoblotting; iii) PI 3-kinase activity assay. […]

[2] = target: T1, binding of p85 to HGF/SF receptor (Bos taurus, UniProt P23727); test: Competition of phosphopeptides with p85 for association with immobilized recombinant HGF/SF receptor (in vitro kinase assay readout); parameters: species or system human
T1 construct: made in house; host or cells: Sf9 insect cells (baculovirus), for both p85 and the receptor
T1 sequence (P23727 whole entry): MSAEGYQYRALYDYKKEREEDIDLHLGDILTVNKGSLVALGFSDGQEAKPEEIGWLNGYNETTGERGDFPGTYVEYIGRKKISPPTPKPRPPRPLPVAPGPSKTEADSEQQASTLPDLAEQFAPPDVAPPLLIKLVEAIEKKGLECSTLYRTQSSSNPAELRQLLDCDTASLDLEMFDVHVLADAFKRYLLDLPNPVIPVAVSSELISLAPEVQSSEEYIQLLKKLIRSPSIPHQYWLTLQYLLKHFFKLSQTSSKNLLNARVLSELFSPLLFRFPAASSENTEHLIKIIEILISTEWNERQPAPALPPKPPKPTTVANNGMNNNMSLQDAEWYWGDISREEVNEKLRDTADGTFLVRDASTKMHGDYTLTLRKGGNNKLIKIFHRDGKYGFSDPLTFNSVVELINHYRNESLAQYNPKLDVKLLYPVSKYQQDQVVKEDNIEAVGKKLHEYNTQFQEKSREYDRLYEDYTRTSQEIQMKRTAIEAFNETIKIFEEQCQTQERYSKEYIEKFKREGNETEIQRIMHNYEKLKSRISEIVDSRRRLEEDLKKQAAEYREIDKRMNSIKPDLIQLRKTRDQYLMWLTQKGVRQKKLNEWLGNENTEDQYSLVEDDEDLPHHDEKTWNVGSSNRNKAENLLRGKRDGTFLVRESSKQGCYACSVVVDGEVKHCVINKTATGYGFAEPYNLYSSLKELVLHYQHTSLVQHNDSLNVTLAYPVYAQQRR
Protocol: FIG. 1. Inhibition of binding of p85 to HGF/SF receptor by tyrosine-phosphorylated peptides. Recombinant HGF/SF receptor was purified by immunoprecipitation from baculovirus-infected Sf9 cells using a rabbit polyclonal antiserum and phosphorylated with cold ATP. Lysates of Sf9 cells expressing p85 were pre-incubated with each of the phosphopeptides (10 μM). The lysates were then allowed to associate with immobilized recombinant HGF/SF receptors. Following association the complex was washed and receptor-bound p85 was detected by an in vitro kinase assay, as described in Materials and Methods of Example 4. The phosphopeptides are identified by the number of the amino terminal tyrosine.
FIG. 2. Inhibition of binding of p85 to HGF/SF receptor with different concentrations of tyrosine-phosphorylated peptides. The phosphopeptides which efficiently out-competed p85 binding to the HGF/SF receptor (FIG. 1) were used at increasing concentrations (10 nM, 100 nM, 1 μM from left to right) to define their relative affinities for p85. Conditions of the experiment were as in FIG. 1. Phosphopeptide 1365 was used as a negative control for p85 interaction.
In vitro association experiments. Sf9 cells expressing the recombinant HGF/SF receptor (approximately 4×10^6 cells/point) were lysed 36 hours after infection in buffer A (10 mM Tris-HCl buffer pH 7.5, 10% glycerol, 1% Triton X-100, 150 mM NaCl, 5 mM EDTA), supplemented with 0.2 mM phenyl-methylsulfonyl fluoride, 1 μg/ml leupeptin, 0.1 TIU/ml aprotinin and 1 μg/ml pepstatin. Lysates were clarified at 15,000×g at 4° C. for 15 minutes and the supernatants immunoprecipitated after 2 hours incubation with anti-Met antibodies coupled to Protein A-Sepharose. Immunocomplexes were washed three times with buffer A, once with buffer B (10 mM Tris-HCl pH 7.4, 100 mM NaCl, 1 mM EDTA) and once with buffer C (25 mM 4-(2-hydroxyethyl)-1-piperazine-ethanesulfonic acid (HEPES) buffer pH 7.2, 100 mM NaCl, 5 mM MgCl2). Samples were pre-phosphorylated by incubation for 15 minutes at 25° C. in buffer C with 10 μM unlabelled ATP and then washed three times with cold buffer A supplemented with 1 mM sodium ortho-vanadate. Association between the immobilized receptor and the baculovirus-expressed p85 was carried out as previously described (Bardelli, A., et al., Oncogene 7: 1973-1978 (1992)). For the association experiments with the PI 3-kinase holoenzyme three days serum-starved A549 cells (approx. 2×10^6 cells/point) were used as a source of PI 3-kinase. A549 cells were Dounce-homogenized in MOPS buffer (20 mM 3-(N-morpholino)propanesulfonic acid) (pH 7.5), 1 mM MgCl2, 0.1 mM EDTA, 200 mM sucrose, 1 mM sodium ortho-vanadate), supplemented with 0.2 mM phenylmethylsulfonyl fluoride, 1 μg/ml leupeptin, 0.1 TIU/ml aprotinin and 1 μg/ml pepstatin. Homogenates were centrifuged at 100,000×g for 20 minutes at 4° C. When checking for the ability of phosphopeptides to block the association with the receptor, cell lysates were pre-incubated with the phosphopeptides for 1 hour at 4° C. prior to incubation with the immobilized recombinant HGF/SF receptor. Following association, immunocomplexes were washed three times with buffer A, twice with buffer D (0.5M LiCl, 100 mM Tris-HCl pH 7.6), and twice with buffer B.
The presence of the p85 subunit of the PI 3-kinase in the receptor immunoprecipitate was determined by: i) labelling of the receptor and associated proteins with [γ-^32 P]ATP by in vitro kinase assay; ii) Western immunoblotting; iii) PI 3-kinase activity assay.
In vitro kinase assay. Receptor-associated proteins were labelled in 20 μl of buffer C, in the presence of 10 μCi [γ-^32 P]ATP (specific activity 7,000 Ci/Mm; Amersham) at 25° C. for 15 minutes. The reaction was stopped by adding 1 ml of ice-cold Buffer A without protease inhibitors. Samples were washed three times with cold buffer A. The labelled immunocomplexes were eluted from Protein A-Sepharose in boiling Laemmli buffer. […]

Grb2 SH2 domain = target: T2, Grb2 SH2 domain (Homo sapiens, UniProt P62993); test: BIAcore real-time binding of Grb2 GST-SH2 fusion protein to immobilized phosphopeptide
T2 construct: corresponding to its SH2 domain (from nucleotide position 256 to nucleotide position 551); made in house; host or cells: bacteria (pGEX-2T)
T2 sequence (P62993 60-152 limits assumed): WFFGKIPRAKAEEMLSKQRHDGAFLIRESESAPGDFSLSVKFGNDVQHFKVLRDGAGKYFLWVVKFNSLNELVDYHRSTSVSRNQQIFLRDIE
Protocol: FIG. 15. The Grb2 SH2 domain binds to the Y^317 docking site of Shc. Panel A: sensorgrams obtained by injection of a range of Gst-SH2.Grb2 concentrations over the immobilised phosphopeptide derived from the Shc sequence DDPSY^317 VNVQ (SEQ. ID NO: 27). Panel B: effect of competing peptide on the dissociation rate. At the end of the Grb2 injection, buffer or […] of non-biotinylated phosphopeptide were injected. Panel C: analysis of the data shown in panel A. The figure on the left is a plot of the rate of binding versus the relative response for the six different sensorgrams. In the figure on the right, the slopes of each line are plotted against the concentration: the new slope gives the value of the association rate constant.
In vitro binding studies using GST-fusion protein. The region of the Grb2 cDNA corresponding to its SH2 domain (from nucleotide position 256 to nucleotide position 551) was isolated using polymerase chain reaction (PCR) and cloned into the BamHI-EcoRI sites of the bacterial expression plasmid pGEX-2T (GST-Grb2). Cultures of bacteria expressing GST, GST-Grb2 or GST-Shc (Segatto et al., Oncogene 2105-2112 (1993)) were grown for 3-4 hours at 37° C. in LB medium containing 1 mM IPTG. […] Protein complexes were washed 5 times in ice cold PY buffer, eluted and denatured by heating at 95° C. for 3 min in Laemmli buffer, resolved on SDS-PAGE and analyzed by immunoblot.
The basic principles of operation as well as the methodology for obtaining kinetic measurements of SH2 domain interactions using the BIAcore instrument (Pharmacia) have been previously described in detail (Panayotou et al., Mol. Cell. Biol. 13: 3567-3576 (1993), Ponzetto et al., Mol. Cell. Biol. 13: 4600-4608 (1993)). […] Association was measured over a range of protein concentrations and dissociation of bound material was allowed to occur either in buffer flow or upon injection of 20 μM competing, non-biotinylated phosphopetide. Peptide and protein concentrations were calculated by amino acid analysis on an Applied Biosystem amino acid analyzer. […]

GST-SH2 domain of Shc = target: T3, GST-SH2 domain of Shc (Homo sapiens, UniProt P29353); test: BIAcore binding of Shc SH2 domain to immobilised phosphopeptides; settings: biosensor; avidin-immobilized biotinylated phosphopeptide
T3 construct: using the Shc SH2 domain, expressed in bacteria as a GST-fusion protein; made in house; host or cells: bacteria
T3 sequence (P29353 488-579 limits assumed): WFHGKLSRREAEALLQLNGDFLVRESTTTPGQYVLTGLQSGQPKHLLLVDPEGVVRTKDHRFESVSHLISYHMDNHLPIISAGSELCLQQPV
Protocol: FIG. 13. […] The same concentration of Shc-SH2 was injected over two biosensor surfaces on which two phosphopeptides had been immobilised. Y1356P is derived from the sequence VNATY^1356 VNVK (SEQ. ID NO: 28) of the receptor tail; Y317P is derived from the sequence DDPSY^317 VNVQ (SEQ. ID NO: 27). Note that both peptides contain the same core (YVNV) but (SEQ. ID NO: 3) different upstream sequences. The initial rapid increase in the response is due to the "bulk effect" of the injected solution.
In vitro binding studies using GST-fusion protein. The region of the Grb2 cDNA corresponding to its SH2 domain (from nucleotide position 256 to nucleotide position 551) was isolated using polymerase chain reaction (PCR) and cloned into the BamHI-EcoRI sites of the bacterial expression plasmid pGEX-2T (GST-Grb2). Cultures of bacteria expressing GST, GST-Grb2 or GST-Shc (Segatto et al., Oncogene 2105-2112 (1993)) were grown for 3-4 hours at 37° C. in LB medium containing 1 mM IPTG. Bacteria were centrifuged, resuspended in 1/100 volume of ice-cold PY buffer, without Triton™ and lysed by sonication. After adding Triton X-100 to 1%, lysates were clarified by centrifugation. Recombinant proteins were purified onto glutathione Sepharose™ (Pharmacia) and used as such for binding assays. For each reaction, about 5 μg of GST, GST-Grb2 or GST-Shc bound to glutathione Seharose was incubated for 2 hrs. at 4° C. with […] of appropriate cell lysate made in PY buffer. Protein complexes were washed 5 times in ice cold PY buffer, eluted and denatured by heating at 95° C. for 3 min in Laemmli buffer, resolved on SDS-PAGE and analyzed by immunoblot.
The basic principles of operation as well as the methodology for obtaining kinetic measurements of SH2 domain interactions using the BIAcore instrument (Pharmacia) have been previously described in detail (Panayotou et al., Mol. Cell. Biol. 13: 3567-3576 (1993), Ponzetto et al., Mol. Cell. Biol. 13: 4600-4608 (1993)). Purified GST-SH2 domains or intact proteins were desalted in BIAcore running buffer (20 mM Hepes, pH 7.4, 150 mM NaCl, 3.4 mM EDTA, 0.005% Tween 20 and 4 mM DTT) and injected over avidin-immobilized, biotinylated phosphopeptides. The amount of phosphopeptides immobilized was normalized by measuring the binding of anti-phosphotyrosine antibodies. Association was measured over a range of protein concentrations and dissociation of bound material was allowed to occur either in buffer flow or upon injection of 20 μM competing, non-biotinylated phosphopetide. Peptide and protein concentrations were calculated by amino acid analysis on an Applied Biosystem amino acid analyzer.
The direct interaction between the SH2 domain of Shc and phosphotyrosine Y^1349 or Y^1356 was confirmed by real-time Biosensor analysis (Panayotou et al., ibid; Felder et al., Mol. Cell. Biol. 13: 1449-1455 (1993)).
The Shc sequence Y^317 VNV (SEQ. ID NO: 3) is identical to one of the two Shc binding sites present in the SF/HGF receptor (FIG. 8). […] The biosensor was used to compare binding of the Shc SH2 domain to the phosphopeptide DDPSY^317 VNVQ (SEQ. ID NO: 27), present on the Shc molecule, and to the phosphopeptide VNATY^1356 VNVK (SEQ. ID NO: 28), present on the SF/HGF receptor. […] Thus Shc-Shc association is not favoured in vivo, and the Shc phosphotyrosine residue Y^317 is available to bind other molecules, rather than to mediate the formation of concatamers.

SMILES | Interference with binding of PI 3-kinase holoenzyme to HGF/SF receptor [1] | Inhibition of binding of p85 to HGF/SF receptor ([2]; phosphopeptide 10 μM, p85 from Sf9 lysates, FIG. 1) | Efficiency at outcompeting p85 (relative affinity for p85) ([2]; phosphopeptides at 10 nM, 100 nM, 1 μM, FIG. 2, rank order SEQ. ID NO: 19, then 22, 20, 18) | kon (Grb2 SH2 domain; Grb2 GST-SH2 over immobilized phosphopeptide, read-out: K^ass (association rate constant)) [M⁻¹ s⁻¹] | Kd (Grb2 SH2 domain; from Kdiss and K^ass, read-out: Overall affinity) [nM] | Kdiss (dissociation rate) (Grb2 SH2 domain; measured in buffer and in the presence of competing phosphopeptide to prevent re-binding) [S^-1] | Binding of Shc SH2 domain to immobilised phosphopeptide (GST-SH2 domain of Shc)
CC(C)[C@H](NC(=O)[C@H](CC(N)=O)NC(=O)[C@@H](NC(=O)[C@H](Cc1ccc(OP(=O)(O)O)cc1)NC(=O)[C@@H](NC(=O)[C@H](C)NC(=O)[C@H](CC(N)=O)NC(=O)[C@@H](NC(=O)[C@H](Cc1c[nH]cn1)NC(=O)[C@@H](NC(=O)[C@@H](N)Cc1ccc(OP(=O)(O)O)cc1)C(C)C)C(C)C)[C@@H](C)O)C(C)C)C(=O)N[C@@H](CCCCN)C(=O)O [H-Tyr*-Val-His-Val-Asn-Ala-Thr-Tyr*-Val-Asn-Val-Lys-OH] (HELM PEPTIDE1{[N[C@@H](Cc1ccc(OP(=O)(O)O)cc1)C(=O)[*:2]].V.H.V.N.A.T.[O=C([C@H](Cc1ccc(OP(=O)(O)O)cc1)N[*:1])[*:2]].V.N.V.K}$$$$V2.0) | more efficient at displacing the PI 3-kinase holoenzyme from the HGF/SF receptor than those including just one of these residues | completely prevented p85 binding | comparable to H-Tyr*-Val-Asn-Val-Lys-Cys-Val-Ala-OH | – | – | – | –
CC(C)[C@H](NC(=O)[C@H](CC(N)=O)NC(=O)[C@@H](NC(=O)[C@H](Cc1ccc(OP(=O)(O)O)cc1)NC(=O)[C@H](CO)NC(=O)[C@@H]1CCCN1C(=O)[C@H](CC(=O)O)NC(=O)[C@@H](N)CC(=O)O)C(C)C)C(=O)N[C@@H](CCC(N)=O)C(=O)O [DDPSY^317* VNVQ, H-Asp-Asp-Pro-Ser-Tyr*-Val-Asn-Val-Gln-OH] (HELM PEPTIDE1{D.D.P.S.[O=C([C@H](Cc1ccc(OP(=O)(O)O)cc1)N[*:1])[*:2]].V.N.V.Q}$$$$V2.0) | – | – | – | 260000 | 153 | 0.04 | much more weakly

Source: US5912183A, “Peptide inhibitors of mitogenesis and motogenesis” (Pharmacia & Upjohn S.p.A., priority 1993, dated 1999)
